Measured values: patent publication US20100183710A1, “OMEPRAZOLE FORM B” (priority 2005, published 2010)

What was measured:
[1] = as described in U.S. Pat. No. 6,150,380; cited from earlier work
[2] = Long-term stability study of omeprazole Form B (polymorphic form by XRPD); format: physicochemical
From the text: Omeprazole Form B prepared using a method similar to the one described in Example 1 was subjected to long-term stability studies. Each sample was packed in a clear polythene bag, filled with nitrogen, tied with a tag and kept in a black polythene bag along with silica pouch filled with nitrogen and then sealed. Finally, the above triple laminated bag along with silica pouch was sealed and stored in a HDPE drum. The color, moisture content, purity and the polymorphic form of the product was checked at intervals during storage. The results for compliance of polymorphic form are tabulated below, where “ND” means not detected by XRPD. 950 mg of Form B and 50 mg of Form A of Omeprazole were weighed and combined to form a weight ratio of Form B to Form A of 95:5. The mixture was ground three times in a mortar to get a uniform powder. [table] FIG. 6 is a scan for pure omeprazole Form B. FIG. 5 is the XRPD scan for the standard, containing 5% by weight of omeprazole Form A, and the scan of FIG. 6 has been superimposed for comparison.

Structure (SMILES): COc1ccc2[nH]c([S+]([O-])Cc3ncc(C)c(OC)c3C)nc2c1 (centres unmarked) [Omeprazole Form B, 5-Methoxy-2-[[(4-methoxy-3,5-dimethyl-2-pyridinyl)methyl]sulfinyl]-1H-benzimidazole]
- Conversion into Form A [1]: can completely or partially convert into Form A
- Color, moisture content and purity of the product during storage ([2]; long-term stability storage): remained substantially the same
- Conversion into crystalline Form A during storage ([2]; storage in a container for 6 months at 40° C. and 60% relative humidity): does not convert into crystalline Form A

Structure (SMILES): COc1ccc2[nH]c([S+]([O-])Cc3ncc(C)c(OC)c3C)nc2c1 (centres unmarked) [omeprazole Form A, 5-Methoxy-2-[[(4-methoxy-3,5-dimethyl-2-pyridinyl)methyl]sulfinyl]-1H-benzimidazole]
- Hygroscopicity relative to omeprazole Form B [1]: less hygroscopic
- Thermodynamic stability relative to omeprazole Form B [1]: thermodynamically more stable
